Results: US11033641B2, “Radiolabelled mGluR2/3 pet ligands” (Janssen Pharmaceutica NV, priority 2015, dated 2021)

How the values were obtained:
[1] = molecular target: T1, human mGlu2 (Homo sapiens, UniProt Q14416); test: [3H]-compound A displacement binding, human mGlu2 HEK293 membranes; settings: Glu2 HEK293, 6 nM [3H]-compound A
T1 construct: expressed in transfected cells; host or cells: HEK293
Experimental: (§1) For [^3H]-compound A (a NAM compound, selective for mGlu2/3 (˜20 fold selective for 2 over 3) vs other mGluRs) binding, membranes from human mGlu2 and mGlu3 HEK293 cells, and also rat cortical membranes, were used. After thawing, membranes were homogenized using an Ultra Turrax homogenizer and suspended in ice-cold binding buffer containing 50 mM Tris-HCl (pH 7.4), 10 mM MgCl2, 2 mM CaCl2. Displacement studies were done using 6 nM of radioligand, except for human mGlu3 membranes where 25 nM was used. Assay mixtures were incubated for 60 min at RT in a volume of 0.5 ml containing […] or 75 μg membrane protein of human mGlu2, human mGlu3 or rat cortex, respectively. Non-specific binding was estimated in the presence of […] compound B (a NAM with IC50˜10 nM against hmGlu2 and IC50˜200 nM against hmGlu3). Filtration was performed using Whatman GF/C filter sheets pre-soaked in 0.1% PEI and a Brandell harvester 96.
(§2) Filters from filters sheets were punched into vials. After the addition of scintillation liquid, radioactivity on the filters was counted in a Liquid Scintillation Analyzer from Perkin Elmer.
(§3) Radioligand competition binding data were calculated as percentage of total binding measured in the absence of test compound. Inhibition curves, plotting percentage of total binding versus the log concentration of the test compound, were generated using the Lexis software. Sigmoid inhibition curves were analyzed using non-linear regression analysis.

[2] = molecular target: T2, human mGlu3 (Homo sapiens, UniProt Q14832); test: [3H]-compound A displacement binding, human mGlu3 HEK293 membranes; settings: Glu3 HEK293, 25 nM [3H]-compound A
T2 construct: expressed in transfected cells; host or cells: HEK293
T2 sequence (Q14832 23-879): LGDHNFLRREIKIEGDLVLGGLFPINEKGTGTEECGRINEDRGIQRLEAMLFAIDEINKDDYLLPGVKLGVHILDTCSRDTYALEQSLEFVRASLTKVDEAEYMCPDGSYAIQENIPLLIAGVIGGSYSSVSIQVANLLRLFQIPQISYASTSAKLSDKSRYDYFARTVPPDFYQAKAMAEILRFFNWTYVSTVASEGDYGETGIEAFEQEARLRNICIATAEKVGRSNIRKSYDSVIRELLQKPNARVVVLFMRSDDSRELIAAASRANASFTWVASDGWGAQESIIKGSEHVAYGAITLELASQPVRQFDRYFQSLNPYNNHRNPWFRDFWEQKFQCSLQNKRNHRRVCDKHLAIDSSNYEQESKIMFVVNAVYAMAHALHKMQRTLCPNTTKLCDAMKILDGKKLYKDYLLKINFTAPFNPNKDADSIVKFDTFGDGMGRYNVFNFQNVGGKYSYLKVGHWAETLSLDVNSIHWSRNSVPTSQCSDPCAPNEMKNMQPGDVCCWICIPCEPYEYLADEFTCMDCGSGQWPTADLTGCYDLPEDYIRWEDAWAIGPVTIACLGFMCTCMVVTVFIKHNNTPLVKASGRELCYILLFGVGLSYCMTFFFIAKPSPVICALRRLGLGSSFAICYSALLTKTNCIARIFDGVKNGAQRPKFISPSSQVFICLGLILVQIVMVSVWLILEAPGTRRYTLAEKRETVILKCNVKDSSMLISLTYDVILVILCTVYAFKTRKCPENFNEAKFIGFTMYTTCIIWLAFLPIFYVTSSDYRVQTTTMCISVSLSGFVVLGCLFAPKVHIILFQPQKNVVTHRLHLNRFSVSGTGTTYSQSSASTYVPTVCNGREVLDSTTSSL
Experimental: as §1, §2, §3

[3] = Ex-vivo biodistribution in SD rats; parameters: species or system Sprague Dawley rats
Experimental: (§4) Sprague-Dawley rats obtained from Harlan (the Netherlands), were housed in groups of four to six per cage until treatment. They were kept at a constant temperature of 21° C. and at a 12-h light/dark cycle, in which lights were switched on at 8:00 a.m. Animals had unrestricted access to food (Teklad Global 16% Protein Rodent Diet, Harlan, Madison, Wis., USA) and water. All animal experiments were performed in compliance with Belgium laws on animal experimentation and after approval by the local animal ethics committee.
The biodistribution of [^18F]-1 was determined at 2, 10, 30 and 60 min, after injection in Sprague Dawley (SD) rats (n=3 per time point) while for [^18F]-2 the 30 min time point was not performed. Rats were injected intravenously with 0.7-1.1 MBq via a tail vein and euthanized at the time points indicated above, under isoflurane anesthesia. All tissues were dissected, weighed and counted for radioactivity in a gamma counter.
The biodistribution of [^18F]-1 was determined at 2, 10, 30 and 60 min, after injection in Sprague Dawley rats (n=3 per time point). Rats were injected intravenously with 0.7-1.1 MBq via a tail vein and euthanized at the time points indicated above, under isoflurane anesthesia. All tissues were dissected, weighed and counted for radioactivity in a gamma counter.

[4] = tested on: mGluR2/3; test: microPET scan, baseline and after compound A pretreatment; type: in vivo; settings: SD rats
Experimental: Data were acquired in a 128×128×95 matrix with a pixel width of 0.475 mm and a slice thickness of 0.796 mm. During PET imaging, rats were kept under gas anesthesia (2.5% isoflurane in oxygen at a flow rate of 1 l/min), and their body temperature was maintained between 36.5 and 37° C. using a heating pad. PET data were analyzed using Pmod software version 3.2 (Pmod, Zurich Switzerland).
as §4
All pretreatment solutions were 1 mg/mL solutions in 20% β-cyclodextrine in saline with a pH ranging between 6 and 8, and sterile filtered over a Millex GV filter prior to use.
For the baseline scan, 36-43 MBq of [^18F]-1 was injected in 3 SD rats weighing 229-251 g in the tail vein, and scanned simultaneously during a 90 min dynamic PET scan. For the pretreatment scan using compound A (a NAM compound, selective for mGlu2/3 (˜20 fold selective for 2 over 3) vs other mGluRs), the same animals were injected with 10 mg/kg compound A s.c. 60 minutes prior to injection of 38-37 MBq [^18F]-1 in the tail vein, and scanned simultaneously during a 90 minutes dynamic PET scan.
For the baseline scan, 39-49 MBq of [^18F]-2 was injected in 3 SD rats weighing 301-310 g in a tail vein, and scanned simultaneously during a 90-min dynamic PET scan. For the pretreatment scan using compound A, the same animals were injected with 10 mg/kg compound A s.c. 60 min prior to injection of 46-50 MBq [^18F]-2 in the tail vein, and scanned simultaneously during a 90 min dynamic PET scan.

T1 sequence (Q14416 19-872): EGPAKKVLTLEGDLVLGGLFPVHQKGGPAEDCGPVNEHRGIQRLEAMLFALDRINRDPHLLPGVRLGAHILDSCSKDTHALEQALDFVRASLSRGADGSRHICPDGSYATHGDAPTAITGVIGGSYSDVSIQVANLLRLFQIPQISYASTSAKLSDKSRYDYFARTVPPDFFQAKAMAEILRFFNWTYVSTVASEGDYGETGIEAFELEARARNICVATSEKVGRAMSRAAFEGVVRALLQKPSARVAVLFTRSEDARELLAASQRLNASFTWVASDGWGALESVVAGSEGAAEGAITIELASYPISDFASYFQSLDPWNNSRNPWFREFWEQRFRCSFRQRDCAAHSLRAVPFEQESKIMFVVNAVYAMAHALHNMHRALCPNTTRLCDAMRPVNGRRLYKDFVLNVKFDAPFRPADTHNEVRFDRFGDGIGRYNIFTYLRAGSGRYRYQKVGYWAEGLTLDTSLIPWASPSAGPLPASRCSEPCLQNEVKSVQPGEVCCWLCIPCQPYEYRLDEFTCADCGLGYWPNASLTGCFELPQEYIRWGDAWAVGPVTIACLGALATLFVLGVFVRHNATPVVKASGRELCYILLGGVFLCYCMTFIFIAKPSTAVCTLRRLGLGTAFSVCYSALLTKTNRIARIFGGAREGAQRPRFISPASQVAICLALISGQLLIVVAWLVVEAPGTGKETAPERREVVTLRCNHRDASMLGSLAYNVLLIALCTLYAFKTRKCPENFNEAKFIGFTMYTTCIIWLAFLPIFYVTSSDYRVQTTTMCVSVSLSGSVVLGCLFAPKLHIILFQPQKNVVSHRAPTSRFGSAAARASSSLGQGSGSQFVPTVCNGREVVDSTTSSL

## C[C@H]1CN(c2ccc(C(F)(F)F)cc2)C(=O)c2c(C#Cc3cnc(N)cc3CF)cnn21 [[^19F]-1]
other
  melting point: 187.28 °C

## C[C@H]1CN(c2ccc(C(F)(F)F)c(CO)c2)C(=O)c2c(C#Cc3ccc(N)nc3)cnn21 [Compound P-3]
other
  melting point: 153.23 °C

## C[C@H]1CN(c2ccc(C(F)(F)F)cc2)C(=O)c2c(C#Cc3cnc(N)cc3CO)cnn21 [Compound P-1]
other
  melting point: 211.51 °C

## C[C@H]1CN(c2ccc(C(F)(F)F)c(C[18F])c2)C(=O)c2c(C#Cc3ccc(N)nc3)cnn21 [Compound 2]
[1]
  Eff Curve: 94
  IC50: 2.82 nM
[2]
  Eff Curve: 107.5
  IC50: 4.37 nM
[3]; blood, 2 min after i.v. injection
  Biodistribution, mean SUV: 0.96 SUV
[3]; blood, 10 min after i.v. injection
  Biodistribution, mean SUV: 0.92 SUV
[3]; blood, 60 min after i.v. injection
  Biodistribution, mean SUV: 0.67 SUV
[3]; bone, 2 min after i.v. injection
  Biodistribution, mean SUV: 0.53 SUV
[3]; bone, 10 min after i.v. injection
  Biodistribution, mean SUV: 0.62 SUV
[3]; bone, 60 min after i.v. injection
  Biodistribution, mean SUV: 2.77 SUV
[3]; cerebellum, 2 min after i.v. injection
  Biodistribution, mean SUV: 1.53 SUV
[3]; cerebellum, 10 min after i.v. injection
  Biodistribution, mean SUV: 1.23 SUV
[3]; cerebellum, 60 min after i.v. injection
  Biodistribution, mean SUV: 0.73 SUV
[3]; cerebrum + cerebellum, 2 min after i.v. injection
  Biodistribution, mean SUV: 1.44 SUV
[3]; cerebrum + cerebellum, 10 min after i.v. injection
  Biodistribution, mean SUV: 1.34 SUV
[3]; cerebrum + cerebellum, 60 min after i.v. injection
  Biodistribution, mean SUV: 0.89 SUV
[3]; cortex, 2 min after i.v. injection
  Biodistribution, mean SUV: 2.50 SUV
[3]; cortex, 10 min after i.v. injection
  Biodistribution, mean SUV: 2.51 SUV
[3]; cortex, 60 min after i.v. injection
  Biodistribution, mean SUV: 1.56 SUV
[3]; ex-vivo biodistribution
  Brain uptake, in words: medium brain uptake
  Defluorination judged from bone uptake over time: massive defluorination
  Peripheral uptake, in words: high uptake in the liver
[3]; heart, 2 min after i.v. injection
  Biodistribution, mean SUV: 2.42 SUV
[3]; heart, 10 min after i.v. injection
  Biodistribution, mean SUV: 1.67 SUV
[3]; heart, 60 min after i.v. injection
  Biodistribution, mean SUV: 0.82 SUV
[3]; hippocampus, 2 min after i.v. injection
  Biodistribution, mean SUV: 1.03 SUV
[3]; hippocampus, 10 min after i.v. injection
  Biodistribution, mean SUV: 1.17 SUV
[3]; hippocampus, 60 min after i.v. injection
  Biodistribution, mean SUV: 0.74 SUV
[3]; kidneys, 2 min after i.v. injection
  Biodistribution, mean SUV: 4.05 SUV
[3]; kidneys, 10 min after i.v. injection
  Biodistribution, mean SUV: 2.73 SUV
[3]; kidneys, 60 min after i.v. injection
  Biodistribution, mean SUV: 1.81 SUV
[3]; liver, 2 min after i.v. injection
  Biodistribution, mean SUV: 8.44 SUV
[3]; liver, 10 min after i.v. injection
  Biodistribution, mean SUV: 6.22 SUV
[3]; liver, 60 min after i.v. injection
  Biodistribution, mean SUV: 2.83 SUV
[3]; lungs, 2 min after i.v. injection
  Biodistribution, mean SUV: 2.66 SUV
[3]; lungs, 10 min after i.v. injection
  Biodistribution, mean SUV: 1.52 SUV
[3]; lungs, 60 min after i.v. injection
  Biodistribution, mean SUV: 1.02 SUV
[3]; muscle, 2 min after i.v. injection
  Biodistribution, mean SUV: 0.88 SUV
[3]; muscle, 10 min after i.v. injection
  Biodistribution, mean SUV: 0.82 SUV
[3]; muscle, 60 min after i.v. injection
  Biodistribution, mean SUV: 0.59 SUV
[3]; pancreas, 2 min after i.v. injection
  Biodistribution, mean SUV: 3.29 SUV
[3]; pancreas, 10 min after i.v. injection
  Biodistribution, mean SUV: 2.06 SUV
[3]; pancreas, 60 min after i.v. injection
  Biodistribution, mean SUV: 1.27 SUV
[3]; pons, 2 min after i.v. injection
  Biodistribution, mean SUV: 1.04 SUV
[3]; pons, 10 min after i.v. injection
  Biodistribution, mean SUV: 0.74 SUV
[3]; pons, 60 min after i.v. injection
  Biodistribution, mean SUV: 0.40 SUV
[3]; rest of cerebrum, 2 min after i.v. injection
  Biodistribution, mean SUV: 1.45 SUV
[3]; rest of cerebrum, 10 min after i.v. injection
  Biodistribution, mean SUV: 1.39 SUV
[3]; rest of cerebrum, 60 min after i.v. injection
  Biodistribution, mean SUV: 0.97 SUV
[3]; spleen, 2 min after i.v. injection
  Biodistribution, mean SUV: 2.53 SUV
[3]; spleen, 10 min after i.v. injection
  Biodistribution, mean SUV: 1.36 SUV
[3]; spleen, 60 min after i.v. injection
  Biodistribution, mean SUV: 0.87 SUV
[3]; striatum, 2 min after i.v. injection
  Biodistribution, mean SUV: 1.51 SUV
[3]; striatum, 10 min after i.v. injection
  Biodistribution, mean SUV: 1.61 SUV
[3]; striatum, 60 min after i.v. injection
  Biodistribution, mean SUV: 1.30 SUV
[3]; whole cerebrum, 2 min after i.v. injection
  Biodistribution, mean SUV: 1.39 SUV
[3]; whole cerebrum, 10 min after i.v. injection
  Biodistribution, mean SUV: 1.34 SUV
[3]; whole cerebrum, 60 min after i.v. injection
  Biodistribution, mean SUV: 0.90 SUV
[4]; 10 mg/kg compound A s.c. 60 min before tracer
  Brain uptake after pretreatment with compound A: peak uptake was higher after pretreatment, but generally showed a faster washout
[4]; 90 min dynamic PET scan
  Brain uptake in PET scan, in words: high brain uptake
[4]; PET, baseline vs compound A pretreatment
  mGluR2/3 specificity of binding in vivo: mGluR2/3 specific binding
